Paper PMC6600469, “Synthesis and Biological Evaluation of NH2-Sulfonyl Oseltamivir Analogues as Influenza Neuraminidase Inhibitors” (Molecules, 2019)
pIC50, pKi: −log10 of the molar value.

Key:
[1] = system: mutant NAs; details: cited from earlier work
[2] = target: H5N1 neuraminidase (A/Anhui/2005) (Influenza A virus (H5N1), UniProt A0A0C5AGB3); assay: biochemical; assay type: biochemical, influenza A H5N1 (A/Anhui/2005); details: for inhibition at 10 µM / inhibition at 100 µM: read-out: inhibition rate against NA from H5N1 subtype
[3] = system: NAs from H5N1 (A/Chicken/China/1220/2012); details: read-out: IC50 against NAs from H5N1; cited from earlier work
[4] = Metabolic stability in human liver microsomes in vitro; details: for Remaining (T = 60 min): human liver microsomes 0.5 mg/mL, 37 °C, 60 min incubation; for half-life: human, liver microsomes
[5] = target: neuraminidase; details: cited from earlier work

SMILES	inhibition at 10 µM [2]	inhibition at 100 µM [2]	melting point	further results
CCC(CC)O[C@@H]1C=C(C(=O)O)C[C@H](NC(C)=O)[C@H]1NC(C)=O [D]				inhibitory activities against mutant NAs [1]: enhanced inhibitory activities
CCCCS(=O)(=O)N[C@H]1CC(C(=O)O)=C[C@@H](OC(CC)CC)[C@@H]1NC(C)=O [4d, (3R, 4R, 5S)-4-acetamido-5-(n-butylsulfonyl)amino-3-(pentan-3-yloxy) cyclohex-1-enecarboxylic acid]	30.3%	53.5%	183.3 to 184.4 °C	
CCC(CC)O[C@@H]1C=C(C(=O)O)C[C@H](N)[C@H]1NC(C)=O [OC, oseltamivir carboxylate, reference compound]				inhibition rate against NA from H5N1 subtype ([2]; 10 µM): 91.0%; inhibition rate against NA from H5N1 subtype ([2]; 100 µM): 95.0%
CCC(CC)O[C@@H]1C=C(C(=O)O)C[C@H](NS(=O)(=O)c2ccc(N)cc2)[C@H]1NC(C)=O [6k, (3R, 4R, 5S)-4-acetamido-5-((4-aminophenyl)sulfonyl)amino-3-(pentan-3-yloxy)cyclohex-1-enecarboxylic acid]		12.5%	176.7 to 181.4 °C	
CCC(CC)O[C@@H]1C=C(C(=O)O)C[C@H](NS(=O)(=O)c2cccc(N)c2)[C@H]1NC(C)=O [6j, (3R, 4R, 5S)-4-acetamido-5-((3-aminophenyl)sulfonyl)amino-3-(pentan-3-yloxy)cyclohex-1-enecarboxylic acid]	37.3%	52.7%	177.4 to 178.1 °C	
CCC(CC)O[C@@H]1C=C(C(=O)O)C[C@H](NCc2ccc(-c3cccs3)cc2)[C@H]1NC(C)=O [B]				pIC50 [3]: 8.68
CCC(CC)O[C@@H]1C=C(C(=O)O)C[C@H](NS(=O)(=O)c2ccc([N+](=O)[O-])cc2)[C@H]1NC(C)=O [4k, (3R, 4R, 5S)-4-acetamido-5-((4-nitrophenyl)sulfonyl)amino-3-(pentan-3-yloxy)cyclohex-1-enecarboxylic acid]	0.5%	38.9%	187.4 to 189.2 °C	
CCC(CC)O[C@@H]1C=C(C(=O)O)C[C@H](NS(=O)(=O)c2ccc(NC(C)=O)cc2)[C@H]1NC(C)=O [4g, (3R, 4R, 5S)-4-acetamido-5-((4-(acetamido)pheny)sulfonyl)amino-3-(pentan-3-yloxy)cyclohex-1-enecarboxylic acid]			236.7 to 238.6 °C	inhibition rate against NA from H5N1 subtype ([2]; 100 µM): little inhibition
CCCS(=O)(=O)N[C@H]1CC(C(=O)O)=C[C@@H](OC(CC)CC)[C@@H]1NC(C)=O [4c, (3R, 4R, 5S)-4-acetamido-5-(n-propylsulfonyl)amino-3-(pentan-3-yloxy)cyclohex-1-enecarboxylic acid]	43.2%	56.5%	196.3 to 198.6 °C	
CCC(CC)O[C@@H]1C=C(C(=O)O)C[C@H](NS(=O)(=O)c2ccccc2[N+](=O)[O-])[C@H]1NC(C)=O [4i, (3R, 4R, 5S)-4-acetamido-5-((2-nitrophenyl)sulfonyl)amino-3-(pentan-3-yloxy)cyclohex-1-enecarboxylic acid]	32%	70.1%		
C[C@]12CC[C@H]3[C@@H](CCC4=CC(=O)CC[C@@]43C)[C@@H]1CC[C@@H]2O [Testosterone, testosterone]				Remaining (T = 60 min) [4]: 3.8%; half-life [4]: 12.5 min
O=C(O)Cc1ccccc1Nc1c(Cl)cccc1Cl [Diclofenac, diclofenac]				Remaining (T = 60 min) [4]: 1.1%; half-life [4]: 9.2 min
CCCCCS(=O)(=O)N[C@H]1CC(C(=O)O)=C[C@@H](OC(CC)CC)[C@@H]1NC(C)=O [4e, (3R, 4R, 5S)-4-acetamido-5-(n-pentylsulfonyl)amino-3-(pentan-3-yloxy)cyclohex-1-enecarboxylic acid]	28.5%	50.5%	179.1 to 182.8 °C	
CCC(CC)O[C@@H]1C=C(C(=O)O)C[C@H](NS(=O)(=O)C(F)(F)F)[C@H]1NC(C)=O [4f, (3R, 4R, 5S)-4-acetamido-5-((trifluoromethyl)sulfonyl)amino-3-(pentan-3-yloxy)cyclohex-1-enecarboxylic acid]	24.8%	49.7%	193.1 to 195.4 °C	
CCC(CC)O[C@@H]1C=C(C(=O)O)C[C@H](NS(=O)(=O)c2ccccc2N)[C@H]1NC(C)=O [6i, (3R, 4R, 5S)-4-acetamido-5-((2-aminophenyl)sulfonyl)amino-3-(pentan-3-yloxy)cyclohex-1-enecarboxylic acid]	63.8%	86.6%	161.8 to 164 °C	
CCC(CC)O[C@@H]1C=C(C(=O)O)C[C@H](NS(=O)(=O)CC)[C@H]1NC(C)=O [4b, (3R, 4R, 5S)-4-acetamido-5-(ethylsulfonyl)amino-3-(pentan-3-yloxy)cyclohex-1-enecarboxylic acid]	50.3%	85.1%	187.7 to 190 °C	
CCC(CC)O[C@@H]1C=C(C(=O)O)C[C@H](NS(C)(=O)=O)[C@H]1NC(C)=O [4a, (3R, 4R, 5S)-4-acetamido-5-(methylsulfonyl)amino-3-(pentan-3-yloxy) cyclohex-1-enecarboxylic acid]	73.9%	91.8%		Remaining (T = 60 min) [4]: 101.6%; half-life [4]: > 145 min
CCC(CC)O[C@@H]1CC(C(=O)O)=C[C@H](n2cc(C(O)CC)nn2)[C@H]1NC(C)=O (stereo partly shown) [C]				pKi [5]: 7.14
CCC(CC)O[C@@H]1C=C(C(=O)O)C[C@H](NS(=O)(=O)c2cccc([N+](=O)[O-])c2)[C@H]1NC(C)=O [4j, (3R, 4R, 5S)-4-acetamido-5-((3-nitrophenyl)sulfonyl)amino-3-(pentan-3-yloxy)cyclohex-1-enecarboxylic acid]	20.3%	33.8%	114.3 to 115.9 °C	
CCC(CC)O[C@@H]1C=C(C(=O)O)C[C@H](NS(=O)(=O)c2ccc(C(F)(F)F)cc2)[C@H]1NC(C)=O [4h, (3R, 4R, 5S)-4-acetamido-5-((4-(trifluoromethyl)phenyl)sulfonyl)amino-3-(pentan-3-yloxy)cyclohex-1-enecarboxylic acid]	40.4%	79.2%		
CCC(CC)O[C@@H]1C=C(C(=O)O)C[C@H](NCc2ccc(-c3ccccc3)cc2)[C@H]1NC(C)=O [A]				pIC50 [3]: 8.72
